Results taken from PubChem BioAssay (NCI).
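Grown in 96-well plates, cells were treated for 48 hours with each compound at five concentrations. Insufficient inhibition: endpoint recorded as highest concentration tested. GI50 is the concentration that inhibits growth by half. TGI is the concentration that stops growth completely.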

Experiments:
Assay in all cases: growth of human tumour cells (NCI), 48 h
[1] = tested on: U251 CNS
[2] = tested on: K-562 leukemia
[3] = tested on: OVCAR-3 ovarian
[4] = tested on: CAKI-1 renal
[5] = tested on: UO-31 renal
[6] = tested on: MDA-MB-231 breast
[7] = tested on: HS 578T breast
[8] = tested on: MDA-MB-435
[9] = tested on: PC-3 prostate
[10] = tested on: M14 melanoma

| Compound | GI50 [1] [µM] | TGI [1] [µM] | GI50 [2] [µM] | TGI [2] [µM] | GI50 [3] [µM] | TGI [3] [µM] | GI50 [4] [µM] | TGI [4] [µM] | GI50 [5] [µM] | TGI [5] [µM] | GI50 [6] [µM] | TGI [6] [µM] | GI50 [7] [µM] | TGI [7] [µM] | GI50 [8] [µM] | TGI [8] [µM] | GI50 [9] [µM] | TGI [9] [µM] | GI50 [10] [µM] | TGI [10] [µM] |
| --- | --- | --- | --- | --- | --- | --- | --- | --- | --- | --- | --- | --- | --- | --- | --- | --- | --- | --- | --- | --- |
| C=C1C(=O)O[C@H]2[C@H]1CC/C(COC(=O)CSCSCC(=O)OC/C1=C/CC[C@@]3(C)O[C@H]3[C@H]3OC(=O)C(=C)[C@@H]3CC1)=C\CC[C@@]1(C)O[C@@H]21 | 1.7 | 3.85 | 0.554 | > 100 | 1.2 | 2.54 | 1.74 | 3.32 | 1.27 | 2.56 | 1.39 | 3 | 4.88 | 64.2 | 2 | 4.56 | 1.86 | 4.14 | 1.55 | 3.22 |
| CCOc1cccc(/C=N/N=C2\C(=O)Nc3c(Cl)cc(Cl)cc32)c1O | – | > 100 | – | > 100 | – | > 100 | – | > 100 | – | > 100 | – | > 100 | – | > 100 | – | > 100 | – | > 100 | – | > 100 |
| C=C(C)[C@@H]1CC[C@]2(C)CC[C@]3(C)[C@H](CC[C@@H]4[C@@]5(C)CC[C@H](O)C(C)(C)[C@@H]5CC[C@]43C)[C@@H]12 | – | 41 | – | > 68.8 | – | > 100 | – | > 100 | – | > 72.1 | – | > 100 | – | 61.7 | – | 40.4 | – | 98.4 | – | > 100 |
| COc1ncnc2c(-c3ccccc3)cn(COCc3ccccc3)c12 | 4.06 | > 100 | 3.32 | > 100 | 5.09 | 20.1 | 3.02 | > 100 | 2.58 | 12 | 4.04 | > 100 | 7.8 | > 100 | 2 | 6.13 | 2.72 | > 100 | 2.66 | 7.07 |
| N=C1C(c2nc3ccccc3s2)=C(O)CN1c1ccc(F)c(Cl)c1 | 5.76 | 23.2 | 31.1 | > 100 | 17.7 | 60.4 | 14.8 | 98.1 | 14.7 | 35.8 | 15.9 | 47.3 | 22.9 | 64.5 | 61.9 | > 100 | 4.04 | 30.8 | > 100 | > 100 |
